Results reported in ChEMBL document CHEMBL4706702 (Bioorg Med Chem, 2021).
Calls of active or inactive are those of the source. The calls are words filed in the database; no cut-off is given here.

Assays:
[1] = Antioxidant activity assessed as inhibition of DPPH radical activity at 100 uM incubated for 20 mins by spectrophotometric method relative to control; type: functional
Mushroom tyrosinase [2] = target: T1, Mushroom tyrosinase (Agaricus bisporus, UniProt O42713+Q00024+C7FF04+C7FF05); experiment: Inhibition of mushroom tyrosinase using L-DOPA as substrate preincubated for 20 mins followed by substrate addition and measured after 10 mins
[3] = target: T2, Mushroom tyrosinase (Agaricus bisporus) (UniProt O42713+Q00024+C7FF04+C7FF05); experiment: Inhibition of mushroom tyrosinase using L-DOPA as substrate at 10 uM preincubated for 20 mins followed by substrate addition and measured after 10 mins relative to control; settings: time 30.0 min
[4] = target: T2, Mushroom tyrosinase (Agaricus bisporus); experiment: Inhibition of mushroom tyrosinase using L-DOPA as substrate at 0.5 uM preincubated for 20 mins followed by substrate addition and measured after 10 mins relative to control; settings: time 30.0 min
Mushroom tyrosinase [5] = target: T1, Mushroom tyrosinase; experiment: Inhibition of mushroom tyrosinase using L-DOPA as substrate preincubated for 10 mins followed by substrate addition and measured after 20 mins
[6] = tested on: O=c1cc(CSc2nc3ccccc3c(=O)n2Cc2ccccn2)occ1O; experiment: Uncompetitive inhibition of mushroom tyrosinase assessed as Vmax at 2.5 uM using L-DOPA as substrate preincubated for 10 mins followed by substrate addition and measured after 10 mins by Lineweaver-Burk plot analysis (reference value: […] OD/min); settings: Agaricus bisporus, time 20.0 min
[7] = tested on: O=c1cc(CSc2nc3ccccc3c(=O)n2Cc2ccccn2)occ1O; experiment: Uncompetitive inhibition of mushroom tyrosinase assessed as Km at 10 uM using L-DOPA as substrate preincubated for 10 mins followed by substrate addition and measured after 10 mins by Lineweaver-Burk plot analysis (reference value: […] uM); settings: Agaricus bisporus, time 20.0 min
[8] = tested on: O=c1cc(CSc2nc3ccccc3c(=O)n2Cc2ccccn2)occ1O; experiment: Uncompetitive inhibition of mushroom tyrosinase assessed as Vmax at 0.5 uM using L-DOPA as substrate preincubated for 10 mins followed by substrate addition and measured after 10 mins by Lineweaver-Burk plot analysis (reference value: […] OD/min); settings: Agaricus bisporus, time 20.0 min
[9] = tested on: O=c1cc(CSc2nc3ccccc3c(=O)n2Cc2ccccn2)occ1O; experiment: Uncompetitive inhibition of mushroom tyrosinase assessed as Km at 2.5 uM using L-DOPA as substrate preincubated for 10 mins followed by substrate addition and measured after 10 mins by Lineweaver-Burk plot analysis (reference value: […] uM); settings: Agaricus bisporus, time 20.0 min
[10] = tested on: O=c1cc(CSc2nc3ccccc3c(=O)n2Cc2ccccn2)occ1O; experiment: Uncompetitive inhibition of mushroom tyrosinase assessed as Km at 0.5 uM using L-DOPA as substrate preincubated for 10 mins followed by substrate addition and measured after 10 mins by Lineweaver-Burk plot analysis (reference value: […] uM); settings: Agaricus bisporus, time 20.0 min
[11] = tested on: O=c1cc(CSc2nc3ccccc3c(=O)n2Cc2ccccn2)occ1O; experiment: Uncompetitive inhibition of mushroom tyrosinase assessed as Vmax at 10 uM using L-DOPA as substrate preincubated for 10 mins followed by substrate addition and measured after 10 mins by Lineweaver-Burk plot analysis (reference value: […] OD/min); settings: Agaricus bisporus, time 20.0 min
[12] = target: T3, Tyrosinase (Mus musculus) (UniProt P11344); experiment: Inhibition of tyrosinase in mouse B16F10 cells assessed melanin level at 8 uM after 24 hrs relative to control; type: cell-based; design: scale not given: the % may be the effect or the level left; settings: B16-F10
T3 sequence (whole entry): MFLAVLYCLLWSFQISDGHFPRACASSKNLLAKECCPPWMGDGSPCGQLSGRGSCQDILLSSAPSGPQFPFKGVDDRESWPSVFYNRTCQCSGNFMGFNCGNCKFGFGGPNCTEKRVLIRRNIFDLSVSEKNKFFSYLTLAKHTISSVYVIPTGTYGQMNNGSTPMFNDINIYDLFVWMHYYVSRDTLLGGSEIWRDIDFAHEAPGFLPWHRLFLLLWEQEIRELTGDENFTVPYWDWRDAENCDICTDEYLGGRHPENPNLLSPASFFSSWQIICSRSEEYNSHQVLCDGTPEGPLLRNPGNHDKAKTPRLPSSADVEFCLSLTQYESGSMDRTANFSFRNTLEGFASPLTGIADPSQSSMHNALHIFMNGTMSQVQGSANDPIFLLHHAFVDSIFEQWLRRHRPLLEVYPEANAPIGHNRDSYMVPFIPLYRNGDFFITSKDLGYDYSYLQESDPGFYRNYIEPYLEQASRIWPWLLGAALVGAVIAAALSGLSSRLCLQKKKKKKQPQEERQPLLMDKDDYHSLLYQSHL

B16-F10 [13] = experiment: Cytotoxicity against mouse B16F10 cells assessed as reduction in cell viability at 8 uM after 48 hrs by MTT assay; type: cell-based; settings: b16-f10, 48 h
B16-F10 [14] = experiment: Cytotoxicity against mouse B16F10 cells assessed as reduction in cell viability at 2 to 4 uM after 48 hrs by MTT assay; type: cell-based; settings: b16-f10, 48 h, dose 2-4 µM
[15] = target: T3, Tyrosinase (Mus musculus); experiment: Inhibition of tyrosinase in mouse B16F10 cells assessed reduction in melanin level at 2 uM after 24 hrs; type: cell-based; settings: B16-F10
[16] = target: T2, Mushroom tyrosinase (Agaricus bisporus); experiment: Potency index, ratio of kojic acid IC50 to test compound IC50 for inhibition of mushroom tyrosinase using L-DOPA as substrate

Chain of Mushroom tyrosinase (Agaricus bisporus) (from UniProt O42713+Q00024+C7FF04+C7FF05) (C7FF05 whole entry, looked up): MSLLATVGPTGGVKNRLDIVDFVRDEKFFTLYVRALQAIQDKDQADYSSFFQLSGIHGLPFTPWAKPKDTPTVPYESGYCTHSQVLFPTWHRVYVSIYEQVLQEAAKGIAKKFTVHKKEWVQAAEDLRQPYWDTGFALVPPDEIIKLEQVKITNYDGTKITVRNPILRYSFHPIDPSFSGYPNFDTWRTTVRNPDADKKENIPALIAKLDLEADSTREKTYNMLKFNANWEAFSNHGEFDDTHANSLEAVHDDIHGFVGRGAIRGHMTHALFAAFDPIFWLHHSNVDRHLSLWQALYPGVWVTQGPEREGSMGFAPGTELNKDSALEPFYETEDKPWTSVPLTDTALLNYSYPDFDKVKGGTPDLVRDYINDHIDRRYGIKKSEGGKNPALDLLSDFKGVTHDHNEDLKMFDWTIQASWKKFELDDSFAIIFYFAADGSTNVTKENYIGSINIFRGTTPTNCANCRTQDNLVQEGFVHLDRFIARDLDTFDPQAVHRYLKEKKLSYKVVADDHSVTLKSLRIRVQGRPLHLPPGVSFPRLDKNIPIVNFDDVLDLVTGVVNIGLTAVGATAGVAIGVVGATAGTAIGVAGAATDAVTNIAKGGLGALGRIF
Chain of Mushroom tyrosinase (Agaricus bisporus) (from UniProt O42713+Q00024+C7FF04+C7FF05) (C7FF04 whole entry, looked up): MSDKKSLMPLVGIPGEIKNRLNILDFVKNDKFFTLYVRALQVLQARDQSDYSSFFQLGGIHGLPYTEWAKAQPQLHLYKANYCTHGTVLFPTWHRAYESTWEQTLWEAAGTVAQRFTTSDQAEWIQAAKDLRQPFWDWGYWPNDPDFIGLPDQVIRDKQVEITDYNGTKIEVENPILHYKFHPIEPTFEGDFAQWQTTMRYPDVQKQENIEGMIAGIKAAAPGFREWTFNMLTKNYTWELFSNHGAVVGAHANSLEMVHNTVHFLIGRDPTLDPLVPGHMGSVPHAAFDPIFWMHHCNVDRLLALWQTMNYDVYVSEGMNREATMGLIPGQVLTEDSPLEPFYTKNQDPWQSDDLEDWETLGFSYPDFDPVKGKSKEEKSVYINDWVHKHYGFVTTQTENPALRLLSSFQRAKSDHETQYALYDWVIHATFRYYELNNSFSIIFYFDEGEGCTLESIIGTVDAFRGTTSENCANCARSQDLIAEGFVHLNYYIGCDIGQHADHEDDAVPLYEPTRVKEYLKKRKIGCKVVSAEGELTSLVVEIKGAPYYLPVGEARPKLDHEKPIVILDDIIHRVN
Chain of Mushroom tyrosinase (Agaricus bisporus) (from UniProt O42713+Q00024+C7FF04+C7FF05) (Q00024 whole entry, looked up): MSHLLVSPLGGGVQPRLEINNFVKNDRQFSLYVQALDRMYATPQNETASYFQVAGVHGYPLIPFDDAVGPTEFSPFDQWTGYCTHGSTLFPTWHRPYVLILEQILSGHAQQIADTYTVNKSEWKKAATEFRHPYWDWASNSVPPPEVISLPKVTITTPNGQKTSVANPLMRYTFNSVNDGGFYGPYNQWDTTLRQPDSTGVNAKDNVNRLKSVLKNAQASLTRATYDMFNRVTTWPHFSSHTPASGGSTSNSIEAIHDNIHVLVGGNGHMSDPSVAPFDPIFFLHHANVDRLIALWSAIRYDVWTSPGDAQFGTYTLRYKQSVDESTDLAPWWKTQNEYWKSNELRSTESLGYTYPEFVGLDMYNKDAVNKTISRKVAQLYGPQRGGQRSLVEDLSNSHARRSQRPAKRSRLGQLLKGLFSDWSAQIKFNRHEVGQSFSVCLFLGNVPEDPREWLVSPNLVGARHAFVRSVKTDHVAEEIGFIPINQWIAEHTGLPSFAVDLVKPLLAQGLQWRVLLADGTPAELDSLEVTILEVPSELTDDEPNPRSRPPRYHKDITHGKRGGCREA
Chain of Mushroom tyrosinase (Agaricus bisporus) (from UniProt O42713+Q00024+C7FF04+C7FF05) (O42713 whole entry, looked up): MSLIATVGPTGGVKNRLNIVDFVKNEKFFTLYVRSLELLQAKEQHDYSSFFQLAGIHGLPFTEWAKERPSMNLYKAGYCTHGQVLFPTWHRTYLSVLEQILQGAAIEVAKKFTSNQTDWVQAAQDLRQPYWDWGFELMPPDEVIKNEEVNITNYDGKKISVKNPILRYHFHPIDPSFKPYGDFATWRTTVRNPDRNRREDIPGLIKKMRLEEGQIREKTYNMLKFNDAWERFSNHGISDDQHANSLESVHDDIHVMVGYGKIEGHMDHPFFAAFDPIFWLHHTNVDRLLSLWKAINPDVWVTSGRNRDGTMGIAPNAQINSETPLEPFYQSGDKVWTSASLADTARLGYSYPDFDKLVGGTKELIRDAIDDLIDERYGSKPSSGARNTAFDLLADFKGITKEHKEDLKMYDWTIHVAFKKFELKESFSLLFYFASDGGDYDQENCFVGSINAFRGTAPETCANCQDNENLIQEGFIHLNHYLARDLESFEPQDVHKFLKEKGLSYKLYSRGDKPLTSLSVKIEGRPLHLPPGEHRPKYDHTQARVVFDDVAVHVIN

Compound | inhibition [1] [%] | IC50 (Mushroom tyrosinase [2]) [nM] | inhibition [3] [%] | inhibition [4] [%] | further results
Cc1ccc(-n2c(SCc3cc(=O)c(O)co3)nc3ccccc3c2=O)cc1 | 33.3 | 5320 | 77.3 | 11.4 | –
CCCn1c(SCc2cc(=O)c(O)co2)nc2ccccc2c1=O | 22.6 | 2310 | 90.5 | 24.5 | –
O=c1cc(CSc2nc3ccccc3c(=O)n2Cc2ccc(F)cc2)occ1O | 32.6 | 1560 | 92 | 32.4 | –
COc1cccc(C(=O)NN2C(=O)c3ccccc3NC2c2ccc(F)cc2)c1 (configuration not stated) | – | – | – | – | IC50 (Mushroom tyrosinase [5]): 6 nM
O=c1cc(CSc2nc3ccccc3c(=O)n2-c2ccc(Br)cc2)occ1O | 33.3 | 1480 | 71.7 | 40.1 | –
CC(C)n1c(SCc2cc(=O)c(O)co2)nc2ccccc2c1=O | 32.6 | 1440 | 91.2 | 38.6 | –
Mushroom tyrosinase (Agaricus bisporus) (from UniProt O42713+Q00024+C7FF04+C7FF05) | – | – | – | – | Vmax (optical density/minute) [6]: 0.15; Km [7]: 0.92 µM; Vmax (optical density/minute) [8]: 0.27; Km [9]: 1.15 µM; Km [10]: 1.68 µM; Vmax (optical density/minute) [11]: 0.081
C=CCn1c(SCc2cc(=O)c(O)co2)nc2ccccc2c1=O | – | 1560 | 92 | 32.4 | –
COc1ccc(-n2c(SCc3cc(=O)c(O)co3)nc3ccccc3c2=O)cc1OC | 24.5 | 2120 | 98.8 | 40.1 | –
O=c1cc(CSc2nc3ccccc3c(=O)n2-c2ccc(Cl)cc2)occ1O | 32.6 | 500 | 94.2 | 49.5 | –
O=c1cc(CSc2nc3ccccc3c(=O)n2-c2ccccc2)occ1O | 31.4 | 1880 | 91.7 | 43 | –
COc1ccc(-n2c(SCc3cc(=O)c(O)co3)nc3ccccc3c2=O)cc1 | 27.1 | 2400 | 83.5 | 22.1 | –
O=c1cc(CSc2nc3ccccc3c(=O)n2Cc2ccccn2)occ1O | 42.6 | 460 | 90.3 | 54.5 | Activity [12]: 75%; Activity (B16-F10 [13]): Toxic; Activity (B16-F10 [14]): Non-Toxic; inhibition [15]: Active
O=c1cc(CSc2nc3ccccc3c(=O)n2-c2ccccn2)occ1O | 33.8 | 500 | 90.9 | 50.5 | Activity [12]: 69%; Activity (B16-F10 [13]): Toxic; Activity (B16-F10 [14]): Non-Toxic; inhibition [15]: Active
O=c1cc(CSc2nc3ccccc3c(=O)n2Cc2ccncc2)occ1O | 39 | 2200 | 88.5 | 15.9 | –
O=c1cc(CSc2nc3ccccc3c(=O)n2C2CC2)occ1O | 24.5 | 2100 | 82.5 | 23.6 | Ratio IC50 [16]: 4
O=C(Nn1c(-c2ccccc2O)nc2ccccc2c1=O)c1ccco1 | – | – | – | – | IC50 (Mushroom tyrosinase [5]): 499 nM
O=c1c(O)c(-c2ccc(O)c(O)c2)oc2cc(O)cc(O)c12 | 4.62 | – | – | – | –
O=c1cc(CSc2nc3ccccc3c(=O)n2Cc2ccccc2)occ1O | 27.9 | 1420 | 94.1 | 42.5 | –
